Publication PMC6934184, “Selective DNA-PKcs inhibition extends the therapeutic index of localized radiotherapy and chemotherapy” (The Journal of Clinical Investigation, 2019)

Target: T1, MAPK12 (p38 gamma) (Homo sapiens, UniProt P53778)
T1 construct: purchased Thermo Fisher Scientific (Life Technologies) SelectScreen
Assay: SelectScreen Z'LYTE
Assay type: biochemical
In short: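 Percent values come from Thermo SelectScreen profiling of NU5455, combining activity and binding assays. CSF1R was run in Z'LYTE format at Km app ATP, and CAMK1 in Adapta format with ATP listed at 10.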

T1 sequence (P53778 whole entry): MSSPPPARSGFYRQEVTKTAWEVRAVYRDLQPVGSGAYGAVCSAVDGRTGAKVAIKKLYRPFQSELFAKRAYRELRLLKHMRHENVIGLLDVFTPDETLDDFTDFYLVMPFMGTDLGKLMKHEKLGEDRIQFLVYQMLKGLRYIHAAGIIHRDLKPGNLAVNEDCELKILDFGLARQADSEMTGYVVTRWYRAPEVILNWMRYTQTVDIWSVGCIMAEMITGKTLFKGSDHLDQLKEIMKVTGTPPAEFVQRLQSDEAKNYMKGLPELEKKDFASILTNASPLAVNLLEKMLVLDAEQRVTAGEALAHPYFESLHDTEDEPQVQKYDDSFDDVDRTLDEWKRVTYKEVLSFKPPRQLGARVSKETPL

Structure (SMILES): CN(C(=O)CN1CCOCC1)c1ccc2sc3c(-c4cccc5c(=O)cc(N6CC7CCC(C6)O7)oc45)cccc3c2c1 [NU5455]
- inhibition at 1 µM: -0.8%
